Drawing on patent US10759816B2, “Heterocyclic compounds as RSV inhibitors” (Enanta Pharmaceuticals, Inc., priority 2016, dated 2020), this text covers EC50 for 24 molecules.

This assay concerns genotype A, "Long" strain RSV. Kind of assay: RSV-A in vitro cytoprotection assay in HEp-2 cells (ATPlite readout of cell viability). In kind it is cell-based, Human respiratory syncytial virus. Conditions: human respiratory syncytial virus, HEp-2, HEp-2 cells, genotype A “Long” strain RSV, cytoprotection; read-out: Human RSV-A (“Long” strain) EC50. The gist of the method:
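Cytoprotection measured as ATP-based luminescence (ATPlite) after 4-day incubation of RSV Long-infected HEp-2 cells (8,000/well, 10% FBS DMEM) with 2-fold serial compound dilutions in duplicate. Identically treated virus-free plate gives cytotoxicity; EC50 calculated from viability.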
(In ATP-based viability assays light output follows the ATP content of the culture.)

Molecules are shown by their SMILES.

In the case of `COc1cccc(Nc2cccc(C(=O)N3CCc4cc(C(=O)NC5CC5)sc4-c4ccccc43)n2)n1` [Example 409], the EC50 – broadly, the concentration that produces a half-maximal response – is above 800 nM. The same measure for `Cc1cccc(F)c1NC(=O)c1cc2c(o1)-c1ccccc1N(C(=O)c1cccc(-c3c[nH]nc3C3CC3)n1)CC2` [Example 275]: below 400 nM. The same measure for `Cc1cccc(F)c1NC(=O)c1cc2c(s1)-c1ccccc1N(C(=O)c1cccc(N3CCS(=O)(=O)CC3C)n1)CC2` (stereo not drawn) [Example 432]: below 400 nM; for `COc1ccc2c(c1)OCCN(c1cccc(C(=O)N3CCc4cc(C(=O)NC5CC5)sc4-c4ccccc43)n1)C2` [Example 282]: below 400 nM. With `Cc1cccc(F)c1NC(=O)c1cc2c(s1)-c1ccccc1N(C(=O)c1cccc(NC(C)(C)c3ccccn3)n1)CC2` [Example 358], the 50% effective concentration (EC50) was below 400 nM.

Regarding `Cc1cccc(F)c1NC(=O)c1cc2c(s1)-c1cc(F)ccc1N(C(=O)c1cccc(-c3c[nH]nc3C3CC3)n1)CC2` [Example 263], the EC50 was below 400 nM. The value for `Cc1cccc(F)c1NC(=O)c1cc2c(s1)-c1ccccc1N(C(=O)c1cccc(N3CCOC4(CCCC4)C3)n1)CC2` [Example 416] was below 400 nM; that for `COc1ccc(=O)n(-c2cccc(C(=O)N3CCc4cc(C(=O)Nc5c(C)cccc5F)sc4-c4ccccc43)n2)c1` [Example 407] was above 800 nM. In the case of `O=C(NC1CC1)c1cc2c(s1)-c1ccccc1N(C(=O)c1cccc(-c3ccnc4ccccc34)n1)CC2` [Example 152], the half-maximal effective concentration (EC50) was above 800 nM. The value for `Cc1cccc(F)c1NC(=O)c1cc2c(s1)-c1ccccc1N(C(=O)c1cccc(-c3c(C)n[nH]c3C)n1)CC2` [Example 209] was below 400 nM; that for `Cc1cccc(F)c1NC(=O)c1cc2c(s1)-c1ccccc1N(C(=O)c1cccc(NCC3(S(C)(=O)=O)CC3)n1)CC2` [Example 466] was below 400 nM. The same measure for `O=C(Nc1ccccc1)c1cc2c(s1)-c1ccccc1N(C(=O)c1cccc(N3CCOc4ccccc4C3)n1)CC2` [Example 299]: 400 to 800 nM; for `O=C(NC1CC1)c1cc2c(s1)-c1ccccc1N(C(=O)c1cccc(-c3ccnc(N4CCOCC4)c3)n1)CC2` [Example 85]: below 400 nM; for `Cc1cccc(F)c1NC(=O)c1cc2c(s1)-c1ccccc1N(C(=O)c1cccc(-c3cnn(S(C)(=O)=O)c3C3CC3)n1)CC2` [Example 216]: below 400 nM. The value for `O=C1CN(c2cccc(C(=O)N3CCc4cc(C(=O)NC5CC5)sc4-c4ccccc43)n2)CCN1` [Example 22] was 400 to 800 nM. `O=C(NC1CC1)c1ccc2c(c1)CCN(C(=O)c1cccc(N3CCOc4ccccc4C3)n1)c1ccccc1-2` [Example 397]: the EC50 was above 800 nM. The value for `O=C(NC1CC1)c1cc2c(o1)-c1ccccc1N(C(=O)c1cccc(N3CCCOCC3)n1)CC2` [Example 106] was 400 to 800 nM; that for `COc1ccc(C(=O)N2CCc3cc(C(=O)NC4CC4)sc3-c3ccccc32)nc1N1CCOCC1` [Example 39] was above 800 nM.

Turning to `Cc1cccc(F)c1NC(=O)c1cc2c(s1)-c1ccccc1N(C(=O)c1cccc(N3CCN(C)S(=O)(=O)CC3)n1)CC2` [Example 447], the EC50 was below 400 nM.

As to `Cc1cccc(F)c1NC(=O)c1cc2c(s1)-c1ccccc1N(C(=O)c1cccc(N[C@H](CO)c3ccccc3)n1)CC2` [Example 502], the concentration for a half-maximal effect (EC50) was below 400 nM. Turning to `O=C(NC1CC1)c1cc2c(s1)-c1ccccc1N(S(=O)(=O)c1cccc(-c3ccnc(N4CCOCC4)c3)n1)CC2` [Example 103], the half-maximal effective concentration (EC50) was above 800 nM. The value for `Cc1cccc(F)c1NC(=O)c1cc2c(s1)-c1ccccc1N(C(=O)c1cccc(N3CCCC(F)(F)CC3)n1)CC2` [Example 403] was below 400 nM; that for `Cc1cccc(F)c1NC(=O)c1cc2c(s1)-c1ccccc1N(C(=O)c1cccc(-c3cn(S(C)(=O)=O)nc3C3CC3)n1)CC2` [Example 215] was below 400 nM.

Take `COc1ccc2c(ccn2-c2cccc(C(=O)N3CCc4cc(C(=O)NC5CC5)sc4-c4ccccc43)n2)c1` [Example 113]: the EC50 is above 800 nM.
